Results from patent US20240368150A1 (Hoffmann-La Roche Inc., priority 2021, published 2024).
Read-outs that look alike come from different tables or passages of the source.

What was measured:
[1] = system: primary human T-cells; experiment: Proliferation assay after 5 days (CellTiter-Glo, CD3 stimulation; PBS counter screen); type: cell-based; settings: Homo sapiens, T-cell, 120 h, CD3 stimulation; for Emax: 5 days, normalized to reference compound A1 as stimulator control = 100%, DMSO neutral control, read-out: Emax proliferation (% activation); for EC50: primary human T-cells, CellTiter-Glo after 5 days, EC50 of fitted sigmoidal curve, read-out: Tcell Proliferation CD3 EC50
How it was run: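 Primary human T-cells, with or without CD3 stimulation, exposed to compounds for 5 days; cell number read as ATP by CellTiter-Glo 2.0 luminescence after 45 min equilibration and 15 min reagent incubation at room temperature. Compounds activating unstimulated cells or reducing viability were flagged.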

[2] = system: primary human T-cells

| EC50 [2] [nM] | Structure (SMILES) | Emax [1] [%] | EC50 [1] [nM] |
| --- | --- | --- | --- |
| 2500 | CN(C)C(=O)c1nc(-c2cc3c(cc2F)S(=O)(=O)C[C@H](N)C(=O)N3Cc2ccc(Cl)cc2)no1 [Example 299, 3-[(3R)-3-amino-5-[(4-chlorophenyl)methyl]-8-fluoro-1,1,4-trioxo-2,3-dihydro-1λ^6,5-benzothiazepin-7-yl]-N,N-dimethyl-1,2,4-oxadiazole-5-carboxamide] | 111 | 5010 |
| 6140 | CC(O)(CNC(=O)c1nc(-c2cc3c(cc2F)S(=O)(=O)C[C@H](N)C(=O)N3Cc2ccc(Cl)cc2)no1)C(F)(F)F (stereo partly drawn) [Example 301, 3-[(3R)-3-amino-5-[(4-chlorophenyl)methyl]-8-fluoro-1,1,4-trioxo-2,3-dihydro-1λ^6,5-benzothiazepin-7-yl]-N-(3,3,3-trifluoro-2-hydroxy-2-methyl-propyl)-1,2,4-oxadiazole-5-carboxamide] | 93 | 2440 |
| > 10000 | CC1(C)CNCC(c2nc(-c3cc4c(cc3F)S(=O)(=O)C[C@H](N)C(=O)N4Cc3ccc(Cl)cc3)no2)C1 (stereo partly drawn) [Example 302, (3R)-3-amino-5-[(4-chlorophenyl)methyl]-7-[5-(5,5-dimethyl-3-piperidyl)-1,2,4-oxadiazol-3-yl]-8-fluoro-1,1-dioxo-2,3-dihydro-1λ^6,5-benzothiazepin-4-one] | 76 | 990 |
| 8140 | CNC(=O)N1CCC(C)(c2nc(-c3cc4c(cc3F)S(=O)(=O)C[C@H](N)C(=O)N4Cc3ccc(Cl)cc3)no2)CC1 [Example 304, 4-[3-[(3R)-3-amino-5-[(4-chlorophenyl)methyl]-8-fluoro-1,1,4-trioxo-2,3-dihydro-1λ^6,5-benzothiazepin-7-yl]-1,2,4-oxadiazol-5-yl]-N,4-dimethyl-piperidine-1-carboxamide] | 61 | 7490 |
| 1810 | CC1(c2nc(-c3cc4c(cc3F)S(=O)(=O)C[C@H](N)C(=O)N4Cc3ccc(Cl)cc3)no2)CCN(C(=O)N2CCCC2)CC1 [Example 305, (3R)-3-amino-5-[(4-chlorophenyl)methyl]-8-fluoro-7-[5-[4-methyl-1-(pyrrolidine-1-carbonyl)-4-piperidyl]-1,2,4-oxadiazol-3-yl]-1,1-dioxo-2,3-dihydro-1λ^6,5-benzothiazepin-4-one] | 84 | 720 |

| Structure (SMILES) | EC50 [2] [nM] | Emax [1] [%] | EC50 [1] [nM] |
| --- | --- | --- | --- |
| CCN1CCC(C)(c2nc(-c3cc4c(cc3F)S(=O)(=O)C[C@H](N)C(=O)N4Cc3ccc(Cl)cc3)no2)CC1 [Example 306, (3R)-3-amino-5-[(4-chlorophenyl)methyl]-7-[5-(1-ethyl-4-methyl-4-piperidyl)-1,2,4-oxadiazol-3-yl]-8-fluoro-1,1-dioxo-2,3-dihydro-1λ^6,5-benzothiazepin-4-one] | 571 | 79 | 3480 |
| CC1(c2nc(-c3cc4c(cc3F)[S+]([O-])C[C@H](N)C(=O)N4Cc3ccc(Cl)cc3)no2)CC[N+]([O-])(CC(F)(F)F)CC1 (stereo partly drawn) [Example 308, (3R)-3-amino-5-[(4-chlorophenyl)methyl]-8-fluoro-7-[5-[4-methyl-1-oxido-1-(2,2,2-trifluoroethyl)piperidin-1-ium-4-yl]-1,2,4-oxadiazol-3-yl]-1-oxo-2,3-dihydro-1λ^4,5-benzothiazepin-4-one] | > 10000 | 61 | 7630 |
| CC1(c2nc(-c3cc4c(cc3F)S(=O)(=O)C[C@H](N)C(=O)N4Cc3ccc(Cl)cc3)no2)CCN(CC(F)(F)F)CC1 [Example 309, (3R)-3-amino-5-[(4-chlorophenyl)methyl]-8-fluoro-7-[5-[4-methyl-1-(2,2,2-trifluoroethyl)-4-piperidyl]-1,2,4-oxadiazol-3-yl]-1,1-dioxo-2,3-dihydro-1λ^6,5-benzothiazepin-4-one] | 443 | 202 |  |
